Laboratory results reported in patent publication US20200239547A1, “ANTICANCER PEPTIDES” (IDP DISCOVERY PHARMA, S.L., priority 2017, published 2020).
Starred links: 1 amine or outer side, 2 acyl side, 3 side chain; linkers in the order of their positions; H or OH if unused. Positions of bridges follow the written chain, without caps; N, C: chain ends. Non-standard residues stand in square brackets, D forms with d. Residues, ends and D or L forms follow the SMILES beside them. No end group written: not given here. ξ: configuration not given here. ξαMeNle(6-ylidene) = CC(CCCC=[*:3])(N[*:1])C(=O)[*:2]; X1 = CC(CCCCCCC=[*:3])(N[*:1])C(=O)[*:2]; R8 = C=CCCCCCC[C@@](C)(N)C(=O)O; S5 = C=CCCC[C@](C)(N)C(=O)O

How the values were obtained:
[1] = tested on: NCl-H510A, epithelial (small cell lung cancer, SCLC); assay: Viability assay in NCl-H510A; type: cell-based; settings: H510A cell line, 48-72 h incubation
Procedure: NCl-510A, epithelial (small cell lung cancer, SCLC), ATCC-HBT-124
(§1) Cell lines NCl-H82, NCl-H187 were cultured in incubator at 37° C. in RPMI-1640 (Sigma R8758) medium with 10% of fetal bovine serum inactivated (FBS) and 2 mM glutamine (Sigma G7513). Cell line NCl-H510A was cultured in incubator in F12K medium with 10% of fetal bovine serum inactivated (FBS).
(§2) During the amplification step and the assays adherent cells were rinsed with DPBS (Dulbecco's Phosphate Buffered Saline, Sigma D1283) three times and afterward treated for 5 minutes with trypsin ([…]) (Gibco-BRL, 15400054) in solution of DPBS at 37° C., and, once detached, transferred in the culturing medium. […] Cells were counted in a Neubauer chamber after labelling with Tripan-Blue. […]
(§3) Cells were incubated during 48-72 h in incubator under CO2 atmosphere at 37° C. Cell viability was measured by means of MTT (3-(4,5-dimethylthiazol-2-yl)-2,5-diphenyltetrazolium bromide) assay, Alamar Blue® (Biosource DAL1100) and Hexosaminidase activity test, consecutively, following manufacturer instructions.
(§4) MTT: 1. […] Absorbance at 570 nm was finally measured.
(§5) Alamar Blue: 10 μl Alamar Blue solution was added to each well and the plates were incubated for […] in the incubator. Fluorescence ratio at 535/590 (excitation/emission) was measured in Cytofluor (Millipore) fluorimeter. […]

[2] = tested on: NCl-H187, epithelial (small cell lung cancer, SCLC); assay: Viability assay in NCl-H187; type: cell-based; settings: H187 cell line, 48-72 h incubation
Procedure: NCl-H187, epithelial (small cell lung cancer, SCLC), ATCC-CRL-5804
as §1, §2, §3, §4, §5

[3] = tested on: NCl-H82, epithelial (small cell lung cancer, SCLC); assay: Viability assay in NCl-H82; type: cell-based; settings: H82 cell line, 48-72 h incubation
Procedure: NCl-H82, epithelial (small cell lung cancer, SCLC), ATCC-CRL-5811
as §1, §2, §3, §4, §5

[4] = tested on: SCLC cell lines; assay: Viability assay, summary over SCLC cell lines; type: cell-based; settings: summary in words of Table 3
Procedure: MCF-7 and NCl-H187 cells were seeded at a density of 5000 cells/well; NCl-H82 were seeded at a density of 2500 cells/well; HL-60, RPMI, U266 and NCl-H510A at 10000 cells/well in 100 μl of medium in 96 well plates. After 24 h, the compounds to be tested were added to calculate the dose/response curve at the starting concentration of 100 μM with serial dilutions (1:1). Controls are the untreated cells. Each experiment was performed in triplicate.
as §3
Data analysis was performed calculating the percentage of cell viability normalized vs. the values of negative control, which was considered equal to 100%. The dose/response curve was fitted through the sigmoidal equation dose-response (variable slope) and the […] values were calculated as follow: […]

[5] = tested on: HL-60, promyeloblast (acute myelocytic leukemia, AML)
Procedure: HL-60, promyeloblast (acute myelocytic leukemia, AML), ECACC: 98070106
(§6) Cell line MCF-7 was cultured in incubator under CO2 (6%) at 37° C. in DMEM high glucose (Dulbecco's Modified Eagle Solution, Gibco-BRL 31966-21) medium with 10% fetal bovine serum inactivated (FBS) (Gibco-BRL 10106-169). Cell lines HL-60, RPMI and U266 were cultured in incubator at 37° C. in RPMI-1640 (Sigma R8758) medium with 10% of fetal bovine serum inactivated (FBS) and 2 mM glutamine (Sigma G7513).
(§7) During the amplification step and the assays adherent cells were rinsed with DPBS (Dulbecco's Phosphate Buffered Saline, Sigma D1283) three times and afterward treated for 5 minutes with trypsin ([0.5 g/ml]/EDTA [0.2 g/ml]) (Gibco-BRL, 15400054) in solution of DPBS at 37° C., and, once detached, transferred in the culturing medium. No-adherent cells were centrifuged and transferred in the culturing medium. Cells were counted in a Neubauer chamber after labelling with Tripan-Blue.
(§8) MTT: 1. Stock solution of MTT (475989 Calbiochem) was 5 mg/ml in PBS 1×. As negative control (experiment noise) 3 wells were treated with 20 μl/well of a solution of SDS 10% in H2O. The same control was used for Alamar Blue/Hexosaminidase. 10 μl/well of MTT solution were added and the plate was incubated for 3-4 hr. The medium was discarded and 100 μl of extracting buffer (PBS 1×, 15% SDS, 50% Na N,N-Dimethylformamide, pH 4.7) were added to each well. Plates were incubated for 16h at room temperature under orbital shaking. Absorbance at 570 nm was finally measured.
(§9) Alamar Blue: 10 μl Alamar Blue solution was added to each well and the plates were incubated for 4 in the incubator. Fluorescence ratio at 535/590 (excitation/emission) was measured in Cytofluor (Millipore) fluorimeter. Blank control was determined by lysis of untreated cells with con 2% of Triton X100, right before adding Alamar Blue solution.
(§10) Hexosaminidase activity test: after Alamar Blue lecture, medium was discarded and plates were rinsed once with PBS. 60 μl hexosaminidase substrate (p-nitrophenol-N-acetyl-beta-D-glucosamide 7.5 mM [Sigma N-9376], sodium citrate 0.1 M, pH 5.0, 0.25% Triton X-100) was added to each well and the plates were incubated at 37° C. for 2-5 h, according to the cell type (hexosaminidase activity changes according to the cell type). […] Blank control was the same as described before.
(§11) Data analysis was performed calculating the percentage of cell viability normalized vs. the values of negative control, which was considered equal to 100%. The dose/response curve was fitted through the sigmoidal equation dose-response (variable slope) and the ECK values were calculated as follow:

[6] = target: MCF-7, epithelial (breast cancer)
Procedure: MCF-7, epithelial (breast cancer), ECACC: 86012803
as §6, §7, §8, §9, §10, §11

[7] = tested on: U266, lymphoblast (myeloma)
Procedure: U266, lymphoblast (myeloma), ATCC® TIB196™
as §6, §7, §8, §9, §10, §11
Y=Bottom+(Top-Bottom)/(1+10̂{[(LogEC50-X)*HillSlope]},

[8] = tested on: RPMI, lymphoblast (myeloma)
Procedure: RPMI, lymphoblast (myeloma), ATCC® CCL155™
Cell lines HL-60, RPMI and U266 were cultured in incubator at 37° C. in RPMI-1640 (Sigma R8758) medium with 10% of fetal bovine serum inactivated (FBS) and 2 mM glutamine (Sigma G7513).
as §7, §8, §9, §10, §11

Row | Molecule | EC50 [1] [µM] | EC50 [2] [µM] | EC50 [3] [µM] | EC50 [5] [µM] | EC50 [6] [µM] | EC50 [7] [µM] | EC50 [8] [µM] | anti-cancer activity in SCLC cell lines [4] | activity in RPMI cell lines ([8]; summary in words of Table 2)
1 | RRRRRRRSKAPKVVILSKALEYLQA-NH2 [IDP-LLCb01] | ~5 | ~5 | ~2.5 | – | – | – | – | showed anti-cancer activity | –
2 | RRRRRRRRKRRNDLRSRFLALRDQ-NH2 [IDP-intwtL05] | – | – | – | > 100 | > 100 | > 100 | > 100 | – | –
3 | CC(C)C[C@@H]1NC(=O)[C@H](C)NC(=O)[C@H](CC(C)C)NC(=O)[C@H](Cc2ccccc2)NC(=O)C(C)(NC(=O)[C@H](CO)NC(=O)[C@H](CCCNC(=N)N)NC(=O)[C@H](CC(C)C)NC(=O)[C@H](CC(=O)O)NC(=O)[C@H](CC(N)=O)NC(=O)[C@H](CCCNC(=N)N)NC(=O)[C@H](CCCNC(=N)N)NC(=O)[C@H](CCCCN)NC(=O)[C@@H](N)CCCNC(=N)N)CCCCCCC=CCCCC(C)(C(N)=O)NC(=O)[C@H](CC(=O)O)NC(=O)[C@H](CCCNC(=N)N)NC1=O (stereo partly shown) [IDP-LS15, RKRRNDLRSXFLALRDX] (H-RKRRNDLRS[X1]FLALRD[ξαMeNle(6-ylidene)]-NH2; staple 10-17 (inferred); N-terminus and C-terminus assumed) | – | – | – | > 100 | > 100 | ~8 | ~7 | – | –
4 | CC[C@H](C)[C@H](NC(=O)[C@H](CCCCN)NC(=O)[C@@H](NC(=O)[C@H](CCC(N)=O)NC(=O)[C@@H](N)CCCNC(=N)N)[C@@H](C)CC)C(=O)N[C@@H](Cc1c[nH]c2ccccc12)C(=O)N[C@@H](Cc1ccccc1)C(=O)N[C@@H](CCC(N)=O)C(=O)N[C@@H](CC(N)=O)C(=O)N[C@@H](CCCNC(=N)N)C(=O)N[C@@H](CCCNC(=N)N)C(=O)N[C@@H](CCSC)C(=O)N[C@@H](CCCCN)C(=O)N[C@@H](Cc1c[nH]c2ccccc12)C(=O)N[C@@H](CCCCN)C(=O)N[C@@H](CCCCN)C(=O)N[C@@H](CO)C(=O)N[C@@H](CCCCN)C(=O)N[C@@H](C)C(=O)N1CCC[C@H]1C(=O)N[C@@H](CCCCN)C(=O)N[C@H](C(=O)N[C@H](C(=O)N[C@H](C(=O)N[C@@H](CC(C)C)C(=O)N[C@@H](CO)C(=O)N[C@@H](CCCCN)C(=O)N[C@@H](C)C(=O)N[C@@H](CC(C)C)C(=O)N[C@@H](CCC(=O)O)C(=O)N[C@@H](Cc1ccc(O)cc1)C(=O)N[C@@H](CC(C)C)C(=O)N[C@@H](CCC(N)=O)C(=O)N[C@@H](C)C(N)=O)[C@@H](C)CC)C(C)C)C(C)C [IDP-LLCb02] | – | – | – | – | – | – | – | showed anti-cancer activity | –
5 | CC(C)C[C@@H]1NC(=O)[C@H](C)NC(=O)[C@H](CCCCN)NC(=O)[C@H](CO)NC(=O)[C@H](CC(C)C)NC(=O)C(C)(NC(=O)[C@@H](NC(=O)[C@@H](NC(=O)[C@H](CCCCN)NC(=O)[C@@H]2CCCN2C(=O)[C@H](C)N)C(C)C)C(C)C)CCCCCCC=CCCCC(C)(C(=O)N[C@@H](CC(C)C)C(=O)N[C@@H](CCC(N)=O)C(=O)N[C@@H](C)C(N)=O)NC(=O)[C@H](CCC(=O)O)NC1=O (stereo partly shown) [IDP-LS16, APKVVXLSKALEXLQA] (H-APKVV[X1]LSKALE[ξαMeNle(6-ylidene)]LQA-NH2; staple 6-13; N-terminus and C-terminus assumed) | – | – | – | > 100 | > 100 | ~10 | ~15 | – | –
6 | RKRRNDLRSRFLALRDQ-NH2 (C-terminus assumed) [IDP-wtL05, Arg-Lys-Arg-Arg-Asn-Asp-Leu-Arg-Ser-Arg-Phe-Leu-Ala-Leu-Arg-Asp-Gln] | – | – | – | > 100 | > 100 | > 100 | ~10 | – | shows activity

More lines, main results first:

Row | EC50 [1] [µM] | EC50 [2] [µM] | EC50 [3] [µM] | EC50 [5] [µM] | EC50 [6] [µM] | EC50 [7] [µM] | EC50 [8] [µM] | Molecule | anti-cancer activity in SCLC cell lines [4] | activity in RPMI cell lines ([8]; summary in words of Table 2)
7 | – | – | – | ~7 | ~10 | ~10 | ~9 | CC(C)C[C@@H]1NC(=O)[C@H](C)NC(=O)[C@H](CC(C)C)NC(=O)[C@H](Cc2ccccc2)NC(=O)[C@H](CCCNC(=N)N)NC(=O)[C@H](CO)NC(=O)[C@](C)(NC(=O)[C@H](CC(C)C)NC(=O)[C@H](CC(=O)O)NC(=O)[C@H](CC(N)=O)NC(=O)[C@H](CCCNC(=N)N)NC(=O)[C@H](CCCNC(=N)N)NC(=O)[C@H](CCCCN)NC(=O)[C@@H](N)CCCNC(=N)N)CCCCCCC=CCCC[C@@](C)(C(=O)N[C@@H](CC(=O)O)C(=O)N[C@@H](CCC(N)=O)C(N)=O)NC1=O [IDP-LS13, RKRRNDLXSRFLALXDQ] (H-RKRRNDL[R8]SRFLAL[S5]DQ-NH2; staple 8-15; N-terminus and C-terminus assumed) | – | –
8 | – | – | – | > 100 | > 100 | ~16 | ~10 | CC[C@H](C)[C@H](NC(=O)[C@@H](NC(=O)[C@@H](NC(=O)[C@H](CCCCN)NC(=O)[C@@H]1CCCN1C(=O)[C@H](C)N)C(C)C)C(C)C)C(=O)N[C@@H](CC(C)C)C(=O)NC1(C)CCCCCCC=CCCCC(C)(C(=O)N[C@@H](C)C(N)=O)NC(=O)[C@H](CC(C)C)NC(=O)[C@H](Cc2ccc(O)cc2)NC(=O)[C@H](CCC(=O)O)NC(=O)[C@H](CC(C)C)NC(=O)[C@H](C)NC(=O)[C@H](CCCCN)NC1=O (stereo partly shown) [IDP-LS17, APKVVILXKALEYLXA] (H-APKVVIL[X1]KALEYL[ξαMeNle(6-ylidene)]A-NH2; staple 8-15 (inferred); N-terminus and C-terminus assumed) | – | –
9 | – | – | – | ~5 | > 100 | > 100 | ~6 | CC(C)C[C@H](NC(=O)[C@H](C)NC(=O)[C@H](CC(C)C)NC(=O)C1(C)CCCC=CCCCCCCC(C)(NC(=O)[C@H](CCCNC(=N)N)NC(=O)[C@H](CCCCN)NC(=O)[C@@H](N)CCCNC(=N)N)C(=O)N[C@@H](CC(N)=O)C(=O)N[C@@H](CC(=O)O)C(=O)N[C@@H](CC(C)C)C(=O)N[C@@H](CCCNC(=N)N)C(=O)N[C@@H](CO)C(=O)N[C@@H](CCCNC(=N)N)C(=O)N1)C(=O)N[C@@H](CCCNC(=N)N)C(=O)N[C@@H](CC(=O)O)C(=O)N[C@@H](CCC(N)=O)C(N)=O (stereo partly shown) [IDP-LS05, RKRXNDLRSRXLALRDQ] (H-RKR[X1]NDLRSR[ξαMeNle(6-ylidene)]LALRDQ-NH2; staple 4-11; N-terminus and C-terminus assumed) | – | –
